Assay results reported in patent US4701521A, “Method of effecting cellular uptake of molecules” (The Trustees of Boston University, priority 1979, dated 1987).
Read-outs that look alike come from different tables or passages of the source.

How the values were obtained:
[1] = system: L-929 fibroblasts; test: Cytocidal effects of 6-MPRP and 6-MPRP-PLL; format: cell-based, mouse
Text: […] After exposure to the free or conjugated drug, the monolayers were kept growing for 2 days in standard growth medium, at which time no cytocidal effect could be detected.

[2] = system: L929 fibroblast cells; test: Cellular uptake of HRP and conjugates as cell-associated peroxidase activity; format: cell-based, mouse
Text: The rate of color development measured at 460 nm (ΔA460 nm /min) was used as an indication of enzymatic activity, and the enzymatic activity measured in the cell extract was used as an expression of cellular uptake.
Following exposure to HRP, or one of its two conjugates, the monolayers of L 929 mouse fibroblasts were washed and detached and the detached cells were washed as described in Example 3. The cells were then lysed and the cell extract used for measurement of enzymatic activity of HRP as described in Example 6.

[3] = system: L929 fibroblasts; test: Cytochemical localization of HRP reaction product (light and electron microscopy); format: cell-based, mouse
[4] = system: BHK (DMN^ts) baby hamster kidney cell line; details: for Cellular Uptake in 60 min.: 3 μg/ml
Method: This experiment was done with a baby hamster kidney cell line (BHK) transformed by exposure to dimethylnitrosamine (DMN), growing with a non-malignant phenotype at 32° C. and a malignant phenotype at 38.5° C. This temperature-sensitive mutant line, called BHK (DMN^ts) was described by G. DeMayorca et al. Proc. Natl. Acad. Sci U.S.A., 70, 46-49 (1973). The cells were grown as monolayers in Dulbecco's high glucose medium. The transition from normal to transformed phenotype requires 3 to 4 population doublings or approximately 56 hours of growth at 38.5° C. The reversion to the normal, non-malignant phenotype likewise require 3 to 4 population doublings or approximately 112 hours of growth at 32° C. […] At time 0, the growth media of the confluent monolayers were replaced by serum free medium prewarmed to 37° C. and containing 3 μg/ml radioiodinated polymer. The monolayers were then incubated for 60 min. at 37° C.

[5] = system: Sarcoma S-180 monolayers; details: for Uptake, 1-min / Uptake, 60-min: 3 μg/ml ^125 I-PLL, 37° C.; for Uptake, 60-min (Corrected for Concentration of 79 nM): assuming uptake linear with concentration
Text: Poly-L-lysines of three different average molecular weights, i.e., 38,000, 115,000 and 230,000, were radio-iodinated using the Bolton-Hunter Reagent. See Bolton, A. E. and Hunter, W. M., Biochem J., 133, pp 529-38 (1973).

[6] = system: variant of the P 1798 lymphosarcoma, steroid-resistant, presumed MTX-sensitive; test: Antitumor effect (tumor weight), steroid-resistant variant; format: in vivo, BALB/c mice; details: for Mean Tumor Weight: Mean ± SEM
Text: The inoculation developed into a palpable tumor within 7-8 days and killed the animal on the average within 14 days. Following inoculation, mice were divided into 4 groups of 4 or 5 mice.
Treatment consisted of one daily intravenous injection for 4 consecutive days, and was begun on Day 11 and Day 12 post-inoculation in experiment number 1 and 2 respectively. All animals were sacrificed one day after the last injection.

[7] = Normal phenotype, PLL MW 125,000, PDL MW 130,000

O=P(O)(O)OC[C@H]1O[C@@H](n2cnc3c(=S)[nH]cnc32)[C@H](O)[C@@H]1O [6-MPRP, 6-mercaptopurine ribosylphosphate]
growth inhibition, drug present for the duration of the experiment ([1]; 2×10^-6 M): both compounds had inhibiting effects | cell growth after subculture and 7 additional days ([1]; 1 h exposure to combination of free 6-MPRP (1×10^-5 M) and free PLL): grew at a rate undistinguichable from that of controls

horseradish peroxidase [HRP]
Cell-associated peroxidase activity ([2]; Example 6, enzyme concentration in medium 150 μg/ml): 0.14 ΔA460 nm /min/mg cell protein | Cell-associated peroxidase activity ([2]; Example 6, enzyme concentration in medium 1500 μg/ml): 1.55 ΔA460 nm /min/mg cell protein | Cell-associated peroxidase activity ([2]; Example 10, 60-minute exposure, 1.5 μg/ml in medium): 0 ΔA460 nm /min/mg cell protein | Cell-associated peroxidase activity ([2]; Example 10, 60-minute exposure, 15 μg/ml in medium): 0 ΔA460 nm /min/mg cell protein | staining of HRP reaction products, light microscopy ([3]; 60' exposure, HRP 150 μg/ml, HRP-PLL 1.5, 5 and 15 μg/ml): minimal staining | HRP reaction product, electron microscopy ([3]; HRP at 100-time greater concentration than HRP-PLL): minimal amounts of stained reaction product

poly-D-lysine [PDL]
Transformed/Normal (uptake ratio) [4]: 1 | Cellular Uptake in 60 min. [4, 7]: 685 ng/mg cell protein | Cellular Uptake in 60 min. ([4]; Transformed phenotype): 680 ng/mg cell protein

poly-L-lysine [PLL (MW 38,000)]
Uptake, 1-min [5]: 18.8 ng/mg cell protein | Uptake, 60-min [5]: 349.4 ng/mg cell protein | Uptake, 60-min (Corrected for Concentration of 79 nM) [5]: 349 ng/mg cell protein

poly-L-lysine [PLL (MW 115,000)]
Uptake, 1-min [5]: 112.3 ng/mg cell protein | Uptake, 60-min [5]: 513.3 ng/mg cell protein | Uptake, 60-min (Corrected for Concentration of 79 nM) [5]: 1717 ng/mg cell protein

poly-L-lysine [PLL (MW 250,000)]
Uptake, 1-min [5]: 153.7 ng/mg cell protein | Uptake, 60-min [5]: 695.4 ng/mg cell protein | Uptake, 60-min (Corrected for Concentration of 79 nM) [5]: 4209 ng/mg cell protein

poly-L-lysine [PLL]
Transformed/Normal (uptake ratio) [4]: 1.43 | Cellular Uptake in 60 min. [4, 7]: 525 ng/mg cell protein | Cellular Uptake in 60 min. ([4]; Transformed phenotype): 750 ng/mg cell protein | % of Controls (tumor weight) ([6]; Experiment No. 1): 113% | Mean Tumor Weight ([6]; Experiment No. 1, daily i.v. 4 days from Day 11): 6.05 ± 0.52 g | % of Controls (tumor weight) ([6]; Experiment No. 2): 102% | Mean Tumor Weight ([6]; Experiment No. 2, daily i.v. 4 days from Day 12): 6.13 ± 0.31 g
